Data reported in US5346913A, “N-iodopropargyl hydantoin compounds, compositions, preparation, and use as antimicrobial agents” (Rohm and Haas Company, priority 1992, dated 1994).
≈ marks a conversion by molar mass, not a printed value. Where two headings read alike, the source gives them in different places.

Columns and labels:
Pseudomonas aerugenosa = assay: MIC, broth two-fold serial dilution test, Pseudomonas aerugenosa (Psae); assay type: cell-based
Description: (§1) The compounds identified with a prime (') were the non-iodo analogues of the invention compounds, i.e., the compounds of formula III or IV. All data are reported in ppm of active ingredient required to control the respective organism. The indication "No In." means that the compound had no inhibitory activity at 500 ppm which was the maximum tested, and so if the "No In." compound were active, the minimum inhibitory concentration would be above 500 ppm. The comparative tests were not run side-by-side, but were run on different days using the same methods. […] A minimum inhibitory concentration (MIC) value is obtained using a broth, two-fold serial dilution test performed as follows: […] A volume of the stock solution is dispensed into culture media to give an initial starting test concentration of the compound of 500 ppm or 250 ppm. When the test is ready to be done, each vessel in the dilution series, except the first vessel, contains an equal volume of compound free broth. The first vessel contains twice the volume of broth with the starting concentration of test compound. One half of the broth from the first vessel is transferred to the second vessel. After being mixed, one half the resulting volume is removed from the second vessel and transferred to the third vessel. […] Each vessel is then inoculated with a cell suspension of the appropriate test organism. Bacteria are grown in broth and fungi on agar […] is grown in cooling tower media for a time and at a temperature appropriate to the species being tested. At the end of the growth period, the broth is vortexed to disperse the cells. In the case of fungi, the spores are harvested by pipetting water onto the slant and dislodging the spores with a sterile loop. The cell/spore suspension is standardized by controlling incubation time, temperature, and the volume of the diluent. The suspension is then used to inoculate the vessels containing the broth compound. The vessels are then incubated at the appropriate temperature. After the incubation, the vessels are examined for growth/no growth. The MIC is defined as the lowest concentration of compound that results in complete inhibition of growth of the test organism. BACTERIA: Pseudomonas fluorescens (Ps.fl), gram negative; Pseudomonas aerugenosa (Ps.ae), gram negative; Escherichia coli (E.c), gram negative; and Staphylococcus aureus (S.a), gram positive.

Escherichia coli = assay: MIC, broth two-fold serial dilution test, Escherichia coli (Ecol); assay type: cell-based
Description: as §1

Staphylococcus aureus = assay: MIC, broth two-fold serial dilution test, Staphylococcus aureus (Saur); assay type: cell-based
Description: as §1

Aspergillus niger = assay: MIC, broth two-fold serial dilution test, Aspergillus niger (Anig); assay type: cell-based; details: TSB
Description: as §1, with “INDUSTRIAL FUNGI: Aspergillus niger (A.n); Aureobasidium pullulans (A.p)” for “BACTERIA: Pseudomonas fluorescens (Ps.fl), gram negative; Pseudomonas aerugenosa (Ps.ae), gram negative; Escherichia coli (E.c), gram negative; and Staphylococcus aureus (S.a), gram positive.”

[1] = system: Pseudoperonospora cubensis; assay: whole plant or invertebrate; assay type: in vivo; details: for percent disease control CDM: in vivo
Piricularia oryzae [2] = assay: whole plant or invertebrate; assay type: in vivo; details: Pyricularia oryzae, read-out: % Control RB
[3] = system: Pellicularia filamentosa (f. sp. sasiki); assay: whole plant or invertebrate; assay type: in vivo; details: 120 h; read-out: % Control RSB
Phytophthora infestans = assay: whole plant or invertebrate; assay type: in vivo; details: for pest or weed control at 50 ppm: read-out: % Control TLB, secondary greenhouse test (Table 5), 50 ppm; for percent disease control TLB: advanced greenhouse test (Table 6), 0.25 kg a.i./ha
[4] = system: Erysiphe graminis (f. sp. tritici); assay: whole plant or invertebrate; assay type: in vivo; details: for percent disease control WPM: in vivo
[5] = system: Puccinia recondita (f. sp. tritici Races PKB and PLD); assay: whole plant or invertebrate; assay type: in vivo
Septoria nodorum = details: in vivo
TLB, CDM, WLR, SNW, WPM = details: in vivo
Xanthomonas campestris = assay: microbe, parasite or virus in culture; assay type: cell-based; details: read-out: % Control XAN
Piricularia oryzae [6] = assay: microbe, parasite or virus in culture; assay type: cell-based; details: read-out: % Control PIR
Cochliobolus sativus = assay: In-vitro plant disease test, HEL; assay type: cell-based; details: Bipolaris sorokiniana, read-out: % Control HEL
Rhizoctonia solani = assay: microbe, parasite or virus in culture; assay type: cell-based; details: read-out: % Control RHI
Fusarium roseum = assay: microbe, parasite or virus in culture; details: Fusarium sambucinum, read-out: % Control FUS
Description: FUS Fusarium roseum (Ascomycete)
Transfers in steps 1 and 2 are done in a laminar flow hood. All 8 fungi and the bacterium used in this test are transferred and maintained on potato dextrose agar plates each week (2 plates/organism). Organisms are used when they are the following ages: a. […] Culture flasks are inoculated with 6 mycelial plugs each (except for Pythium which is inoculated with only 3 plugs) taken from PDA plates. All liquid shaker cultures are used after 2 days growth.
PYU, PHY, RHI and FUS cultures are ground up (2-3 5 second bursts in a blender) and all but Pythium and Phytophthora are filtered through a double layer of sterile cheesecloth to remove large mycelial clumps. Ten ml of the culture solutions of R. solani and F. roseum are added to 90 ml of YSB and 10 ml of the P. capsici is added to 90 ml ASB. […] The inoculum mixtures are placed in microtiter plates using a 12-tipped pipet. 175 μl (single dose) or 100 μl (dose-response test) of inoculum broth is placed in each well of the microtiter plates. The plates with inoculated media are placed in the refrigerator overnight. There are two replications per treatment.
This operation is carried out in a chemistry hood. Six microtiter plates have 245 microliters of sterile water added to their wells ahead of time. 10 Mg a.i. of the compounds are placed in 1 ml 1:1 acetone:methanol. 5 Microliters of this solution (6 microliters in the case of the 50 ppm dose) is pipetted into the microtiter plates containing the sterile water according to the grid. There are 45 compounds and 3 scattered control treatments per plate. There are 2 replicates per treatment. 25 Microliters of solution is transferred to the inoculated plates with a 96 well replicator. The replicator is flame sterilized with alcohol, rinsed with sterile water, and blotted on sterile paper towels between each transfer.

Pythium ultimum = assay: In-vitro plant disease test, PYU; assay type: cell-based; details: Globisporangium ultimum, read-out: % Control PYU
Phytophthora capsici = assay: In-vitro plant disease test, PHY; assay type: cell-based; details: read-out: % Control PHY
[7] = Pseudoperonospora cubensis, in Cucumis sativus, 168 h, read-out: % Control CDM
[8] = Phytophthora infestans, in Solanum lycopersicum, 96 h, read-out: % Control TLB, greenhouse test (Table 4), 200 ppm
[9] = Phytophthora infestans, in Solanum lycopersicum, 96 h
[10] = Phytophthora infestans, in Solanum lycopersicum, 96 h, read-out: % Control TLB, secondary greenhouse test (Table 5), 200 ppm
[11] = Blumeria graminis, read-out: % Control WPM
[12] = Puccinia recondita, 240 h, read-out: % Control WLR

| SMILES | MIC (Pseudomonas aerugenosa; M9G) [µg/mL] | MIC (Pseudomonas aerugenosa; TSB) [µg/mL] | MIC (Escherichia coli; M9G) [µg/mL] | MIC (Escherichia coli; TSB) [µg/mL] | MIC (Staphylococcus aureus; M9G) [µg/mL] | MIC (Staphylococcus aureus; TSB) [µg/mL] | MIC (Aspergillus niger) [µg/mL] | pest or weed control at 200 ppm [1, 7] [%] | percent disease control CDM [1] [%] | pest or weed control at 50 ppm (Piricularia oryzae [2]) [%] | pest or weed control at 200 ppm (Piricularia oryzae [2]) [%] | pest or weed control at 50 ppm [3] [%] | pest or weed control at 200 ppm (Phytophthora infestans; [8]) [%] | pest or weed control at 50 ppm (Phytophthora infestans; [9]) [%] | percent disease control TLB (Phytophthora infestans) [%] | pest or weed control at 50 ppm [4, 11] [%] | pest or weed control at 200 ppm [4, 11] [%] | percent disease control WPM [4] [%] | pest or weed control at 50 ppm [5, 12] [%] | pest or weed control at 200 ppm [5, 12] [%] | other results |
| --- | --- | --- | --- | --- | --- | --- | --- | --- | --- | --- | --- | --- | --- | --- | --- | --- | --- | --- | --- | --- | --- |
| CC1C(=O)N(c2ccc(Cl)cc2)C(=O)N1CC#CI (centres unmarked) [Compound 2, 1-(3-iodo-2-propynyl)-3-(4-chlorophenyl)-5-methylhydantoin] | > 500 | > 500 | > 500 | 500 (≈ 1290 µM) | > 500 | > 500 | 2 (≈ 5.15 µM) | 0 | 98.0 | 50 | 75 | 0 | 0 | 50 | 38.0 | 50 | 75 | 53.0 | 80 | 85 | pest or weed control at 200 ppm [3]: 0%; pest or weed control at 200 ppm (Phytophthora infestans; [10]): 75%; % Control WLR ([5]; in vivo): 90%; percent disease control WLR ([5]; in vivo): 83.0%; percent disease control SNW (Septoria nodorum): 90.0%; percent disease control Average (TLB, CDM, WLR, SNW, WPM): 72.4% |
| CC1C(=O)N(c2ccc(F)cc2)C(=O)N1CC#CI (centres unmarked) [Compound 3, 1-(3-iodo-2-propynyl)-3-(4-fiuorophenyl)-5-methylhydantoin] | > 500 | > 500 | > 500 | 250 (≈ 672 µM) | > 500 | > 500 | 4 (≈ 10.7 µM) | 50 | 100.0 | 50 | 50 | 0 | 0 | 0 | 52.0 | 50 | 40 | 65.0 | 0 | 95 | pest or weed control at 200 ppm [3]: 0%; pest or weed control at 200 ppm (Phytophthora infestans; [10]): 95%; percent disease control WLR ([5]; in vivo): 75.0%; percent disease control SNW (Septoria nodorum): 47.0%; percent disease control Average (TLB, CDM, WLR, SNW, WPM): 67.8% |
| O=C1N(c2cc(Cl)cc(Cl)c2)C(=O)C2(CCCC2)N1CC#CI [Compound 4, 1-(3-iodo-2-propynyl)-3-(3,5-dichlorophenyl)-5,5-spirocyclopentane-hydantoin] | > 500 | > 500 | > 500 | > 500 | > 500 | > 500 | 16 (≈ 34.5 µM) | 50 | 100.0 | 50 | 50 | 50 | 95 | 0 | 30.0 | 0 | 25 | 63.0 | 0 | 0 | pest or weed control at 200 ppm [3]: 50%; pest or weed control at 200 ppm (Phytophthora infestans; [10]): 0%; percent disease control WLR ([5]; in vivo): 80.0%; percent disease control SNW (Septoria nodorum): 53.0%; percent disease control Average (TLB, CDM, WLR, SNW, WPM): 65.2% |
| O=C1N(c2cc(Cl)cc(Cl)c2)C(=O)C2(CCCCC2)N1CC#CI [Compound 5, 1-(3-iodo-2-propynyl)-3-(3,5-dichlorophenyl)-5,5-spirocyclohexane-hydantoin] | > 500 | > 500 | > 500 | > 500 | > 500 | > 500 | > 500 | 40 | 100.0 | 50 |  | 25 | 95 | 0 | 28.0 | 50 | 0 | 67.0 | 0 | 0 | percent disease control WLR ([5]; in vivo): 80.0%; percent disease control SNW (Septoria nodorum): 72.0%; percent disease control Average (TLB, CDM, WLR, SNW, WPM): 69.4% |
| CC1(C)C(=O)N(CC#CI)C(=O)N1CC#CI [Compound 11] | 125 (≈ 274 µM) |  | 64 (≈ 140 µM) |  | 32 (≈ 70.2 µM) |  | < 4 |  |  |  |  |  |  |  |  |  |  |  |  |  | inhibition of growth at 25 ppm (Xanthomonas campestris): 0%; inhibition of growth at 50 ppm (Xanthomonas campestris): 0%; inhibition of growth at 25 ppm (Piricularia oryzae [6]): 100%; inhibition of growth at 50 ppm (Piricularia oryzae [6]): 100%; inhibition of growth at 25 ppm (Cochliobolus sativus): 90%; inhibition of growth at 25 ppm (Rhizoctonia solani): 100%; inhibition of growth at 50 ppm (Rhizoctonia solani): 100%; pest or weed control at 100 ppm [1, 7]: 100%; pest or weed control at 100 ppm (Piricularia oryzae [2]): 95%; pest or weed control at 100 ppm (Phytophthora infestans; Phytophthora infestans, in Solanum lycopersicum, 96 h, read-out: % Control TLB, greenhouse test (Table 4), 100 ppm): 0%; pest or weed control at 100 ppm [4, 11]: 85%; pest or weed control at 100 ppm [5, 12]: 50%; inhibition of growth at 25 ppm (Fusarium roseum): 0%; inhibition of growth at 50 ppm (Fusarium roseum): 100% |
| CC1(C)NC(=O)N(CC#CI)C1=O [Compound 12] | 250 (≈ 856 µM) | > 500 | 125 (≈ 428 µM) | 250 (≈ 856 µM) | 125 (≈ 428 µM) | 16 (≈ 54.8 µM) | 8 (≈ 27.4 µM) | 0 |  |  | 95 |  | 0 |  |  |  | 0 |  |  | 25 | inhibition of growth at 25 ppm (Pythium ultimum): 100%; inhibition of growth at 25 ppm (Xanthomonas campestris): 0%; inhibition of growth at 25 ppm (Piricularia oryzae [6]): 90%; inhibition of growth at 25 ppm (Phytophthora capsici): 100%; inhibition of growth at 25 ppm (Rhizoctonia solani): 100%; inhibition of growth at 25 ppm (Fusarium roseum): 75% |
